Type in all cases: biochemical
Test [1] concerns the target T1, PLK1 (Homo sapiens, UniProt P53350).
T1 construct: purchased Invitrogen PV3501
Kind of test: PLK1 Inhibition Assay (Z-Lyte). As to conditions: for IC50: 25 μM ATP, 8 nM PLK1, read-out: PLK1 IC50 Ranges; for inhibition at 10 µM: 10 μM compound, read-out: PLK1 relative inhibition percentage at a dose of 10 μM. Here is the method:
PLK1 inhibition was determined using the Z-Lyte assay kit from Invitrogen (cat #PV3802). […] The % inhibition values were determined according to the manufacturer's directions and IC50 values were obtained using a non-linear 4 point logistic curve fit (XLfit4, IDBS)

Test [2] has as its target T2, human PLK4 (Homo sapiens, UniProt O00444).
T2 construct: amino terminal GST fusion of residues 1-391 of human PLK4; made in house; host or cells: E. coli
T2 sequence (O00444 1-391): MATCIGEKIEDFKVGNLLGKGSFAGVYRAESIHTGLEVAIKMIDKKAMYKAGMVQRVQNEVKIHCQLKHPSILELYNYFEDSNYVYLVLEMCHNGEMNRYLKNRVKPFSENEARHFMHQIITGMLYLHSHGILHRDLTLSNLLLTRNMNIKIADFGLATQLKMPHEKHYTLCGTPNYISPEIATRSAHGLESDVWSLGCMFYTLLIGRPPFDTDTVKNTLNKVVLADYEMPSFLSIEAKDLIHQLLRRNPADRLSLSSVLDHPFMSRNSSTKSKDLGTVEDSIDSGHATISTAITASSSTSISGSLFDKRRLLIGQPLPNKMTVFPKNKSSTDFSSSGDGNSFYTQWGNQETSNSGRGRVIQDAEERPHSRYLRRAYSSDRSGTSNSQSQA
Kind of test: PLK4 Inhibition Assay (indirect ELISA). The gist of the method: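 Dephosphorylated (lambda phosphatase) GST-PLK4 activity read by indirect ELISA. Compounds were pre-incubated with enzyme for 15 minutes before ATP was added. IC50 came from a non-linear 4-point logistic fit.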

In test [3] the target is T3, Aurora B (Homo sapiens, UniProt Q96GD4).
T3 construct: purchased Invitrogen PV3970
T3 sequence (Q96GD4 whole entry): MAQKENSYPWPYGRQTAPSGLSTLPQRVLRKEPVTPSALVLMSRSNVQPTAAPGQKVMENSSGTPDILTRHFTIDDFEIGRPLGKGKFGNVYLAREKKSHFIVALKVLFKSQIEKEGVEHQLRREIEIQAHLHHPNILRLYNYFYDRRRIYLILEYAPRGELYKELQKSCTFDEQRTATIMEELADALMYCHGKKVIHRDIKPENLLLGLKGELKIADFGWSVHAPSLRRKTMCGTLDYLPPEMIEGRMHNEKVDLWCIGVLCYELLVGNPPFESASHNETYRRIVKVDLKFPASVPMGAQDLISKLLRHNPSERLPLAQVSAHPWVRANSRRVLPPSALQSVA
As to the kind of experiment: Aurora B Inhibition Assay (Z-Lyte). Conditions: for IC50: 128 μM ATP, 28 nM Aurora B, read-out: Aurora B IC50 Ranges. On the procedure:
Aurora B inhibition was determined using the Z-Lyte assay kit from Invitrogen. The assay was performed using the recommended manufacturer's instructions with 128 μM ATP and 28 nM Aurora B (Invitrogen cat #PV3970). The % inhibition values were determined according to the manufacturer's directions and IC50 values were obtained using a non-linear 4 point logistic curve fit (XLfit4, IDBS)

Test [4] deals with T4, PLK2 (Homo sapiens, UniProt Q9NYY3).
T4 construct: purchased Invitrogen PV4204
T4 sequence (Q9NYY3 whole entry): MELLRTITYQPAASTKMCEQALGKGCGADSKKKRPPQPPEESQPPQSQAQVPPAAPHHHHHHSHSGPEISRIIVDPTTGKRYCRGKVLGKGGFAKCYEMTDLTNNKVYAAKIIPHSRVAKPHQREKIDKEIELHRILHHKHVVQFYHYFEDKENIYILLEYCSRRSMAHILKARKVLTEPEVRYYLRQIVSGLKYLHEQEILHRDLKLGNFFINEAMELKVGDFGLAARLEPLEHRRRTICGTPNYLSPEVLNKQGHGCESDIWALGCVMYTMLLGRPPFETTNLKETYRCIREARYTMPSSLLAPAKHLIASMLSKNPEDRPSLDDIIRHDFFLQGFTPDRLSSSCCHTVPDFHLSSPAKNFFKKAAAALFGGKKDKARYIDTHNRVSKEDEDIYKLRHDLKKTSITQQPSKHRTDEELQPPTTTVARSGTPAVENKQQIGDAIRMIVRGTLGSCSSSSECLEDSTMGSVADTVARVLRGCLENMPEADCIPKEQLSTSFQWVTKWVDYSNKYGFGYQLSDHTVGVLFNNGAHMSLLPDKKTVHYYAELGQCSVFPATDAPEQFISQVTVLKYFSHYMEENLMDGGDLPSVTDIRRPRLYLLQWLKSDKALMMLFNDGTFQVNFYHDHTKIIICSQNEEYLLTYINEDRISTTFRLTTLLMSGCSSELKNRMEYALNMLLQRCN
As to the kind of experiment: PLK2 Inhibition Assay (Z-Lyte). Conditions: for inhibition at 10 µM: 10 μM compound, read-out: PLK2 relative inhibition percentage at a dose of 10 μM. Here is the method: PLK2 inhibition was determined using the Z-Lyte assay kit from Invitrogen (cat #PV3802). The assay was performed using the recommended manufacturer's instructions with 60 μM ATP and 133 nM PLK2 (Invitrogen cat #PV4204). The % inhibition values were determined according to the manufacturer's directions and IC50 values were obtained using a non-linear 4 point logistic curve fit (XLfit4, IDBS)

In test [5] the target is T5, Aurora A (Homo sapiens, UniProt O14965).
T5 construct: purchased Invitrogen PV3612
T5 sequence (O14965 1-403): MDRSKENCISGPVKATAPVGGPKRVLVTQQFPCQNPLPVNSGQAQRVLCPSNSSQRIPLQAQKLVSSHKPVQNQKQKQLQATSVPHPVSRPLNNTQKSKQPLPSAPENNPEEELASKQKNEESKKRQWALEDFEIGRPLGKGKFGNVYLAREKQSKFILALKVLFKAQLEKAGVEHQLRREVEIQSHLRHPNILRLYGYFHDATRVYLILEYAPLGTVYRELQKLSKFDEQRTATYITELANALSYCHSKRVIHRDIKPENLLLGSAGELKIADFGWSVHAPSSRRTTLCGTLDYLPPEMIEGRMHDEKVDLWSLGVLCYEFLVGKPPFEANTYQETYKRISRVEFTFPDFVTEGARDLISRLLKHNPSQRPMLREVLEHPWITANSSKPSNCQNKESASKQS
Kind of test: Aurora A Inhibition Assay (Z-Lyte). As to conditions: for IC50: 20 μM ATP, 12 nM Aurora A, read-out: Aurora A IC50 Ranges; for inhibition at 10 µM: 10 μM compound, read-out: Aurora A relative inhibition percentage at a dose of 10 μM. Here is the method: Aurora A inhibition was determined using the Z-Lyte assay kit from Invitrogen. The assay was performed using the recommended manufacturer's instructions with 20 μM ATP and 12 nM Aurora A (Invitrogen cat #PV3612). The % inhibition values were determined according to the manufacturer's directions and IC50 values were obtained using a non-linear 4 point logistic curve fit (XLfit4, IDBS)

The mark [6] stands for this setting: 15 μM ATP, 4 nM GST-PLK4, read-out: PLK4 IC50 Ranges.

Like-named read-outs stand apart in the source and are kept apart here. A value given as a limit tells only on which side of the number the result lay.

T1 sequence (P53350 whole entry): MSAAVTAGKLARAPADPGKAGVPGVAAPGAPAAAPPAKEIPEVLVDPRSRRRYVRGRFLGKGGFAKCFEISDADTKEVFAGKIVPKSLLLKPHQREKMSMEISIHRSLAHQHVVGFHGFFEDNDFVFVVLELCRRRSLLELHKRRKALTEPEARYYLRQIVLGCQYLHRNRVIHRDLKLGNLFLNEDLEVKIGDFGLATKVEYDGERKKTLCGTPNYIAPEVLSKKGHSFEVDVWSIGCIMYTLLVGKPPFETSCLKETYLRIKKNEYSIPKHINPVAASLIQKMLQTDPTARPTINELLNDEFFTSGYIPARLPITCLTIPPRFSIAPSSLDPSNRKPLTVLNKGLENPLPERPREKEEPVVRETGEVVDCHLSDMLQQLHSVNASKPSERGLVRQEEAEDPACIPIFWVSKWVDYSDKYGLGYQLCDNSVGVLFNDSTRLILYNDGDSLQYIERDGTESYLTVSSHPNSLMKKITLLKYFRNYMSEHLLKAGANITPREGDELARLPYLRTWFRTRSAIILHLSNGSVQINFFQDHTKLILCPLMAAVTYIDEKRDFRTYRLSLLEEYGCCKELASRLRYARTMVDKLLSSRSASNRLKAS

As for `Nc1ccc2c(c1)NC(=O)/C2=C/c1ccc2cn[nH]c2c1` [Example A38, (E)-3-((1H-indazol-6-yl)methylene)-2-oxoindolin-6-aminium 2,2,2-trifluoroacetate], the IC50 was 5 to 50 µM in test [1], < 5 µM in test [2] (setting [6]), < 5 µM in test [3] and 5 to 50 µM in test [5]. Moreover, in test [4], the inhibition at 10 µM is < 50%.
With `O=C1Nc2c(F)cccc2/C1=C\c1ccc2cn[nH]c2c1` [Example A42, (E)-3-((1H-indazol-6-yl)methylene)-7-fluoroindolin-2-one], the IC50 is > 50 µM in test [1], < 5 µM in test [2] (setting [6]), < 5 µM in test [3] and < 5 µM in test [5]. In addition, the inhibition at 10 µM in test [4] is > 50%.
As for `O=C1Nc2c(Cl)cccc2/C1=C\c1ccc2cn[nH]c2c1` [Example A43, (E)-3-((1H-indazol-6-yl)methylene)-7-chloroindolin-2-one], the IC50 is > 50 µM in test [1], < 5 µM in test [2] (setting [6]), < 5 µM in test [3] and 5 to 50 µM in test [5]. In addition, the inhibition at 10 µM in test [4] is > 50%.
As for `O=C1Nc2ccccc2/C1=C\c1cc(-c2ccncc2)c2cn[nH]c2c1` [Example A54a, (E)-3-((4-(pyridin-4-yl)-1H-indazol-6-yl)methylene)indolin-2-one], the IC50 in test [1] is > 50 µM; in test [2] (setting [6]) it was < 5 µM; in test [3], < 5 µM. Moreover, the inhibition at 10 µM in test [4] and in test [5] was > 50% each time.
Regarding `Nc1cccc2c1NC(=O)/C2=C/c1ccc2cn[nH]c2c1` [Example A56, (E)-3-((1H-indazol-6-yl)methylene)-7-aminoindolin-2-one], the IC50 in test [1] was > 50 µM; in test [2] (setting [6]) it was < 5 µM; in test [3], < 5 µM; in test [4] (60 μM ATP, 133 nM PLK2, read-out: PLK2 IC50 Ranges) it was < 5 µM; in test [5], < 5 µM.
With `O=C1Nc2ccccc2/C1=C\c1ccc2c(/C=C/c3ccccc3)n[nH]c2c1` [Example A58, (E)-3-((E)-(3-styryl-1H-indazol-6-yl)methylene)indolin-2-one], the inhibition at 10 µM in test [1] and in test [4] was < 50% in each case. Further, the half-maximal inhibitory concentration (IC50) in test [2] (setting [6]), in test [3] and in test [5] was < 5 µM throughout.
Turning to `COC(=O)/C=C/c1n[nH]c2cc(/C=C3/C(=O)Nc4ccccc43)ccc12` [Example A61, (E)-methyl 3-(6-((E)-(2-oxoindolin-3-ylidene)methyl)-1H-indazol-3-yl)acrylate], the inhibition at 10 µM in test [1] and in test [4] was < 50% each time. Further, the half-inhibitory concentration (IC50) in test [2] (setting [6]), in test [3] and in test [5] was < 5 µM in each case.
Turning to `O=C1Nc2ccc(Br)cc2/C1=C\c1ccc2c(/C=C/c3ccncc3)n[nH]c2c1` [Example A62, (E)-5-bromo-3-((3-((E)-2-(pyridin-4-yl)vinyl)-1H-indazol-6-yl)-methylene)indolin-2-one], the inhibition at 10 µM in test [1] and in test [4] was < 50% in each case. The IC50 in test [2] (setting [6]), in test [3] and in test [5] was < 5 µM each time.
Turning to `O=C1Nc2ncccc2/C1=C\c1ccc2cn[nH]c2c1` [Example A67, (E)-3-((1H-indazol-6-yl)methylene)-1H-pyrrolo[2,3-b]pyridin-2(3H)-one], the inhibition at 10 µM was > 50% in test [1]; > 50% in test [3] (10 μM compound, read-out: Aurora B relative inhibition percentage at a dose of 10 μM); > 50% in test [4]; > 50% in test [5]. Moreover, the IC50 in test [2] (setting [6]) is < 5 µM.
On to `O=C1Nc2ncccc2/C1=C\c1ccc2c(/C=C/c3ccccn3)n[nH]c2c1` [Example A72, (E)-3-((3-((E)-2-(pyridin-2-yl)vinyl)-1H-indazol-6-yl)methylene)-1H-pyrrolo[2,3-b]pyridin-2(3H)-one], for which the inhibition at 10 µM in test [1] was < 50%; in test [4], < 50%; in test [5] it was > 50%. Moreover, the 50% inhibitory concentration (IC50) in test [2] (setting [6]) and in test [3] was < 5 µM each time.
As to `O=C1Nc2ccc(Cl)cc2/C1=C\c1ccc2cn[nH]c2c1` [Example A80, (E)-3-((1H-indazol-6-yl)methylene)-5-chloroindolin-2-one], the inhibition at 10 µM in test [1] and in test [4] was < 50% in each case. Besides, the concentration for half-maximal inhibition (IC50) in test [2] (setting [6]), in test [3] and in test [5] was < 5 µM throughout.
On to `Cc1ccc2c(c1)/C(=C\c1ccc3c(/C=C/c4ccncc4)n[nH]c3c1)C(=O)N2` [Example A85, (E)-5-methyl-3-((3-((E)-2-(pyridin-4-yl)vinyl)-1H-indazol-6-yl)methylene)indolin-2-one], for which the inhibition at 10 µM in test [1] and in test [4] was < 50% each time. Also, the IC50 in test [2] (setting [6]), in test [3] and in test [5] was < 5 µM in each case.
Consider `COc1ccc2c(c1)/C(=C\c1ccc3c(/C=C/c4ccncc4)n[nH]c3c1)C(=O)N2` [Example A86, (E)-5-methoxy-3-((3-((E)-2-(pyridin-4-yl)vinyl)-1H-indazol-6-yl)methylene)indolin-2-one], for which the inhibition at 10 µM is < 50% in test [1], < 50% in test [4] and > 50% in test [5]. In addition, the 50% inhibitory concentration (IC50) in test [2] (setting [6]) and in test [3] was < 5 µM throughout.
Regarding `O=C1Nc2ncccc2/C1=C\c1ccc2c(/C=C/c3ccncc3)n[nH]c2c1` [Example A101, (E)-3-((3-((E)-2-(pyridin-4-yl)vinyl)-1H-indazol-6-yl)methylene)-1H-pyrrolo[2,3-b]pyridin-2(3H)-one], the inhibition at 10 µM was < 50% in test [1], < 50% in test [4] and > 50% in test [5]. Further, the IC50 in test [2] (setting [6]) and in test [3] was < 5 µM each time.
For the molecule `COc1ccc2c(c1)/C(=C\c1ccc3c(-c4ccc(N5CCOCC5)nc4)n[nH]c3c1)C(=O)N2` [Example A112, (E)-5-methoxy-3-((3-(6-morpholinopyridin-3-yl)-1H-indazol-6-yl)-methylene)indolin-2-one], the inhibition at 10 µM in test [1] and in test [4] was < 50% throughout. In addition, the IC50 in test [2] (setting [6]), in test [3] and in test [5] was < 5 µM throughout.
For `O=C1Nc2ccccc2/C1=C\c1ccc2c(/C=C/c3cccnc3)n[nH]c2c1` [Example A113, (E)-3-((3-((E)-2-(pyridin-3-yl)vinyl)-1H-indazol-6-yl)methylene)-indolin-2-one], the inhibition at 10 µM in test [1] and in test [4] was < 50% each time. Also, the half-inhibitory concentration (IC50) in test [2] (setting [6]), in test [3] and in test [5] was < 5 µM each time.
As to `COc1ccc2c(c1)/C(=C\c1ccc3c(/C=C/c4cc[n+]([O-])cc4)n[nH]c3c1)C(=O)N2` [Example A117, 4-((E)-2-(6-((E)-(5-methoxy-2-oxoindolin-3-ylidene)methyl)-1H-indazol-3-yl)vinyl)pyridine 1-oxide], the inhibition at 10 µM in test [1] and in test [4] was < 50% throughout. For the same molecule, the IC50 in test [2], in test [3] and in test [5] was < 5 µM throughout.
